Test results published in patent US5434132A, “Neuropeptide antagonists” (Imperial Cancer Research Technology, Ltd., priority 1988, dated 1995).
Read-outs that look alike come from different tables or passages of the source. Non-standard residues stand in square brackets, D forms with d. Residues, ends and D or L forms follow the SMILES beside them.

Experiments:
[1] = target: T1, bombesin/GRP receptor (Mus musculus, UniProt P21729); test: 125I-GRP binding to membrane preparations of Swiss 3T3 cells; set-up: species or system murine
T1 construct: Membrane protein (150 μg) prepared from Swiss 3T3 cells as described above; endogenous in cells; host or cells: Swiss 3T3 cells; membrane-enriched fraction prepared with 5 mM Mg2+
Protocol: Membrane preparation: Cultures in roller bottles were washed twice with 150 ml phosphate buffered saline (PBS) (0.14M NaCl, 5 mM KCl, 0.01M Na2 HPO4, 1.8 mM KH2 PO4; pH 7.2) at room temperature. The cells were then harvested at 4° C. by scraping into ice cold PBS containing 5 mM MgCl2, 1 mM [ethylenebis(oxyethylenenitrilo)]tetraacetic acid (EGTA), 1 mg/ml bacitracin, 10 ug/ml aprotonin, 1 mg/ml soybean trypsin inhibitor and 50 μM phenylmethylsulphonyl fluoride. All subsequent steps were carried out at 4° C. The cells were pelleted by centrifugation at 750 x g for 10 minutes and resuspended 5×10^6 /ml in solution A containing 50 mM 4-(2-Hydroxyethyl)-1-piperazineethanesulfonic acid (Hepes), 5 mM MgCl2, 1 mM EGTA, 1 mg/ml bacitracin, 10 μg/ml aprotonin, 1 mg/ml soybean trypsin inhibitor and 50 μM phenylmethylsulfonyl fluoride, adjusted to pH 7.4 with NaOH at 4° C. Cells were then disrupted using a Dounce homogeniser (A pestle) 75 strokes. The homogenate was centrifuged at 500 x g for 10 minutes to remove nuclear material and intact cells and the supernatant was centrifuged again at 30000 x g for 30 minutes. The resulting pellet, representing a membrane-enriched preparation was resuspended at a protein concentration of 5 to 10 mg/ml in solution A and stored in liquid nitrogen. For experiments, membranes were thawed and diluted to a concentration of 1 mg/ml with solution A.
Receptor binding assay: Binding assays were carried out in a total volume of 100 ul in binding medium containing 50 mM Hepes, 5 mM MgCl2, 1 mg/ml bacitracin and 1% bovine serum albumin (BSA), adjusted to pH 7.4 with NaOH, unless otherwise indicated. […] Non-specific binding was subtracted from the total binding to obtain specific binding. The membranes were incubated for either 10 minutes at 37° C. or 30 minutes: at 15° C. as indicated.
The binding reactions were terminated at the specified times by rapid filtration on GF/B glass fibre filters (Whatmann, 1.0 μm pore size). Each filter was washed five times with 5 ml of PBS containing 1% BSA at 4° C. (15 s total time) using a Millipore filtration apparatus. Before the addition of membranes the filters were soaked for 24 hours in 5% polyethylenimine at 4° C. and washed with 5 ml of PBS containing 1% BSA immediately prior to use. […] Radioactivity was determined with a Beckmann γ-counter.
When 1n[(Beq - Bt)/(BoLo - Beq Bt)]is plotted as a function of time k1 can be determined from the slope by the following relation k1 =slope x [Beg/(Beg^2 - BoLo)](36) where Bo and Lo are the initial concentrations of receptor and ligand respectively. Bt is the concentration of receptor-ligand complex at time t and Beg is its concentration at equilibrium. Equation (1) takes into account the decrease in free ligand concentration that occurs during the binding reaction.
The first order rate constant of dissociation was determined from the slope of the line obtained by plotting ln(Bt/Beg) as a function of time.
The reactions were terminated and specific binding determined as described in "Experimental Procedures".

[2] = target: T2, Mr 75,000-85,000 protein (Mus musculus, UniProt P21729); test: Chemical cross-linking (EGS) of 125I-GRP to the Mr 75,000-85,000 protein in Swiss 3T3 membranes; type: binding, murine
T2 construct: Membrane protein (150 μg) prepared from Swiss 3T3 cells as described above; endogenous in cells; host or cells: Swiss 3T3 cells; membrane-enriched fraction prepared with 5 mM Mg2+
Protocol: BSA was omitted from all solutions used in the cross-linking studies. At the end of the incubation the membranes were centrifuged at 1000 rpm for 1 minute in a MSE microfuge at room n temperature. The pellets were then resuspended in cross-linking medium containing 4 mM of the cross-linking reagent (EGS) and incubated at 37° C. or 15° C. for 5 minutes or 15 minutes respectively. The reaction was terminated by centrifugation for 1 minute followed by one wash with cross-linking medium and centrifugation. Samples were solubilised in 0.20 ml of 2× sample buffer, (0.2 M Tris-HCl pH 6.8, 10% (w/v) glycerol, 6% sodium dodecyl sulphate (SDS) (w/v), 4% β-mercaptoethanol (v/v), and 2 mM EDTA), immediately heated to 100° C. for 10 minutes and analysed by one dimensional electrophoresis.
SDS-Polyacrylaaide Gel glectrophoresis: Slab gel electrophoresis was performed using 8% acrylamide in the separating gel and 4% in the stacking gel and 0.1% SDS (37). After electrophoresis gels were stained, desrained and dried down onto paper for autoradiography with Fuji x-ray film. Dried gels were exposed for 2-4 days at -70° C. Autoradiograms were scanned using an LKB ultrascan XL densitometer; and the incorporation of radioactivity into the Mr 75,000-85,000 band was quantified using the Ultroscan XL internal digital integrator.
Following incubation at 37° C. for 10 minutes the membranes were pelleted by centrifugation and chemical cross-linking carried out as described in "Experimental Procedures" using 4 mM EGS. The samples were analyzed by SDS-PAGE and scanning densitometry of the autoradiograms as described in "Experimental Procedures".

[3] = system: Swiss 3T3 cells
[4] = system: Swiss 3T3 cells; details: references 4,12,13; cited from earlier work
[5] = target: T3, vasopressin receptor (Mus musculus, UniProt Q62463); details: references 4,12,13; cited from earlier work
T3 construct: endogenous in cells; host or cells: Swiss 3T3 cells

[6] = system: small cell lung cancer (SCLC) cell lines; test: Growth in vitro of small cell lung cancer (SCLC) cell lines; details: 5 of 5 cell lines tested: H69, H82, H128, H417 and UCH25
[7] = target: T1, bombesin/GRP receptor; details: previously published; cited from earlier work
[8] = addition at 1μM, 0.5 nM 125I-GRP, 37° C., 10 minutes, None 305 ± 9, mean±SEM, n=3
[9] = 10 min, read-out: 125I-GRP affinity labelling of the Mr 75,000-85,000 protein
[10] = 0.5 nM 125I-GRP, 15° C., 30 minutes

T2 sequence (P21729 whole entry): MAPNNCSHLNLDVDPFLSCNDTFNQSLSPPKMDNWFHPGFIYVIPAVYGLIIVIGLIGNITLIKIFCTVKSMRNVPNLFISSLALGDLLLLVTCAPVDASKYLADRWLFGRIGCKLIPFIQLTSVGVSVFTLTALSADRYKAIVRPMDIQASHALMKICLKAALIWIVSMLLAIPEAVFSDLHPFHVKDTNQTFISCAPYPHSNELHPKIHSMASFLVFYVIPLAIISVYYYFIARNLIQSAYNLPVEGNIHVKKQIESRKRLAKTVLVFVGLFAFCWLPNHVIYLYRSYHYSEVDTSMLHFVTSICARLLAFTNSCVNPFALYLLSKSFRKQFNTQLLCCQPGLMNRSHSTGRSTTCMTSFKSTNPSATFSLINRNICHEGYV
T1 sequence (P21729 whole entry): as above
T3 sequence (Q62463 whole entry): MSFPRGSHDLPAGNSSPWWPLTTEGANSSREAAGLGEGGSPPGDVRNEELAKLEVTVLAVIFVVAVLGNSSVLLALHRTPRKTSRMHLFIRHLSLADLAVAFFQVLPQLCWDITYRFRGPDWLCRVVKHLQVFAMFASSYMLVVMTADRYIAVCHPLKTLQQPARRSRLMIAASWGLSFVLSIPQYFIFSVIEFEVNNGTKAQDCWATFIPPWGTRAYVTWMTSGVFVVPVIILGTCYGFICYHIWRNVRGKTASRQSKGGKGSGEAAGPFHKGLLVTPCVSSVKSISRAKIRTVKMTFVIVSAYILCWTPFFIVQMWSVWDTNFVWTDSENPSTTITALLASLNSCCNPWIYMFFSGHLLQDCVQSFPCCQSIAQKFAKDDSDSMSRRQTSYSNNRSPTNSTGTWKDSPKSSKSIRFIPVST

In the case of EGF: epidermal growth factor, the “specific binding of 125I-GRP to membranes” value ([1]; addition at 40 nM, 0.5 nM 125I-GRP, 37° C., 10 minutes, None 305 ± 9) is reported as 305 ± 6 fmole/mg protein and the “125I-GRP affinity labelling of the Mr 75,000-85,000 protein” value (“125I-GRP affinity labelling” below) ([2]; addition at 40 nM, 0.5 nM 125I-GRP, 37° C., 10 minutes, None 100) is reported as 108 ± 1 % of maximum.

With `CCCC(=O)O[C@@H]1[C@@H](C)[C@@]2(O)[C@@H](C=C(CO)C[C@]3(O)C(=O)C(C)=C[C@@H]23)[C@@H]2C(C)(C)[C@]12OC(=O)CCC` [PBt2, phorbol 12,13-dibutyrate] the “specific binding of 125I-GRP to membranes” value ([1]; addition at 400 nM, 0.5 nM 125I-GRP, 37° C., 10 minutes, None 305 ± 9) was 305 ± 9 fmole/mg protein and the “125I-GRP affinity labelling” value ([2]; addition at 400 nM, 0.5 nM 125I-GRP, 37° C., 10 minutes, None 100) was 111 ± 2 % of maximum.

For substance K, the “specific binding of 125I-GRP to membranes” value [1, 8] was 314 ± 5 fmole/mg protein.

With litorin the “inhibition of specific binding of 125I-GRP to membrane preparations” value ([1]; concentration-dependent manner) was “inhibited” and the “125I-GRP affinity labelling” value ([2]; addition at 100 nM, 0.5 nM 125I-GRP, 37° C., 10 minutes, None 100) was 3 ± 1 % of maximum.

In the case of `CSCC[C@H](NC(=O)[C@H](CC(C)C)NC(=O)[C@H](Cc1cnc[nH]1)NC(=O)CNC(=O)[C@@H](NC(=O)[C@H](C)NC(=O)[C@H](Cc1c[nH]c2ccccc12)NC(=O)[C@H](CCC(N)=O)NC(=O)[C@H](CC(N)=O)NC(=O)CNC(=O)[C@H](CC(C)C)NC(=O)[C@H](CCCN=C(N)N)NC(=O)[C@H](CCC(N)=O)NC(=O)[C@@H]1CCC(=O)N1)C(C)C)C(N)=O` [bombesin], the “specific binding of 125I-GRP to membranes” value [1] is reported as 7 ± 0.2 fmole/mg protein and the remaining activity at 0.1 µM [2, 9] is reported as 5 ± 1%.

`CSCC[C@H](NC(=O)[C@H](Cc1ccccc1)NC(=O)[C@H](Cc1cnc[nH]1)NC(=O)CNC(=O)[C@@H](NC(=O)[C@H](C)NC(=O)[C@H](Cc1c[nH]c2ccccc12)NC(=O)[C@H](CC(C)C)NC(=O)[C@H](CC(N)=O)NC(=O)CN)[C@@H](C)O)C(N)=O` [neuromedin B] gave an IC50 [1] of 0.18 µM and a remaining activity at 1 µM [2, 9] of 7 ± 2%.

In the case of `NC(=O)CC[C@@H]1NC(=O)[C@H](Cc2ccccc2)NC(=O)[C@H](Cc2ccc(O)cc2)NC(=O)[C@@H](N)CSSC[C@@H](C(=O)N2CCC[C@H]2C(=O)N[C@@H](CCCN=C(N)N)C(=O)NCC(N)=O)NC(=O)[C@H](CC(N)=O)NC1=O` [Vasopressin, vasopressin], the “specific binding of 125I-GRP to membranes” value [1, 8] is reported as 353 ± 10 fmole/mg protein and the remaining activity at 1 µM [2, 9] is reported as 102 ± 1%.

Work on `CC(C)C[C@H](NC(=O)[C@H](CC(C)C)NC(=O)[C@@H](Cc1c[nH]c2ccccc12)NC(=O)[C@H](Cc1ccccc1)NC(=O)[C@@H](Cc1c[nH]c2ccccc12)NC(=O)[C@H](CCC(N)=O)NC(=O)[C@@H](Cc1ccccc1)NC(=O)[C@@H]1CCCN1C(=O)[C@H](CCCCN)NC(=O)[C@@H]1CCCN1C(=O)[C@H](N)CCCN=C(N)N)C(N)=O` [antagonist D, D-Arg-Pro-Lys-Pro-D-Phe-Gln-D-Trp-Phe-D-Trp-Leu-Leu-NH2] (H-[dR]PKP[dF]Q[dW]F[dW]LL-NH2) yielded an IC50 [1, 10] of 7 µM.

With “PDGF: Recombinant platelet derived growth factor c-sis” the “specific binding of 125I-GRP to membranes” value ([1]; addition at 15 nM, 0.5 nM 125I-GRP, 37° C., 10 minutes, None 305 ± 9) was 341 ± 9 fmole/mg protein and the “125I-GRP affinity labelling” value ([2]; addition at 15 nM, 0.5 nM 125I-GRP, 37° C., 10 minutes, None 100) was 104 ± 1 % of maximum.

For `C[C@H](N)C(=O)NCC(=O)N[C@H]1CSSC[C@@H](C(=O)O)NC(=O)[C@H](CO)NC(=O)[C@H]([C@@H](C)O)NC(=O)[C@H](Cc2ccccc2)NC(=O)[C@H]([C@@H](C)O)NC(=O)[C@H](CCCCN)NC(=O)[C@H](Cc2c[nH]c3ccccc23)NC(=O)[C@H](Cc2ccccc2)NC(=O)[C@H](Cc2ccccc2)NC(=O)[C@H](CC(N)=O)NC(=O)[C@H](CCCCN)NC1=O` [Somatostatin, somatostatin], the “specific binding of 125I-GRP to membranes” value [1, 8] was 308 ± 8 fmole/mg protein.

In the case of `CC(C)C[C@H](NC(=O)[C@H](CC(C)C)NC(=O)[C@@H](Cc1c[nH]c2ccccc12)NC(=O)[C@H](Cc1ccccc1)NC(=O)[C@@H](Cc1c[nH]c2ccccc12)NC(=O)[C@H](CCC(N)=O)NC(=O)[C@H](CCC(N)=O)NC(=O)[C@@H]1CCCN1C(=O)[C@H](CCCCN)NC(=O)[C@H]1CCCN1C(=O)[C@H](N)CCCNC(=N)N)C(N)=O` [antagonist A, D-Arg-D-Pro-Lys-Pro-Gln-Gln-D-Tro-Phe-D-Trp-Leu-Leu-NH2] (H-[dR][dP]KPQQ[dW]F[dW]LL-NH2), the IC50 [1, 10] is given as 38 µM, the IC50 [3] is given as 90 µM and the “inhibition of vasopressin-stimulated DNA synthesis” value [4] is given as “inhibit”. The “inhibition of [3H]vasopressin binding” value [5] was “inhibit” and the “concentrations effective in inhibiting growth of SCLC” value [6] was 50 to 150 µM.

In the case of `CSCC[C@H](NC(=O)[C@H](CC(C)C)NC(=O)CNC(=O)[C@H](Cc1ccccc1)NC(=O)[C@H](Cc1ccccc1)NC(=O)[C@H](CCC(N)=O)NC(=O)[C@H](CCC(N)=O)NC(=O)[C@@H]1CCCN1C(=O)[C@H](CCCCN)NC(=O)[C@@H]1CCCN1C(=O)[C@@H](N)CCCNC(=N)N)C(N)=O` [substance P, Arg-Pro-Lys-Pro-Gln-Gln-phe-phe-Gly-Leu-Met-NH2], the “specific binding of 125I-GRP to membranes” value [1, 8] is listed as 305 ± 4 fmole/mg protein, the remaining activity at 1 µM ([2]; 10 min, addition at 1μM, 0.5 nM 125I-GRP, 37° C., 10 minutes, None 100, read-out: 125I-GRP affinity labelling of the Mr 75,000-85,000 protein) is listed as 93 ± 2% and the “inhibition of binding of [125I]GRP to Swiss 3T3 cells” value [7] is listed as “neither inhibits”.

In the case of vasoactive intestinal peptide [VIP], the “specific binding of 125I-GRP to membranes” value [1, 8] is reported as 353 ± 10 fmole/mg protein.

For `CSCC[C@H](NC(=O)[C@H](CC(C)C)NC(=O)[C@H](Cc1cnc[nH]1)NC(=O)CNC(=O)[C@@H](NC(=O)[C@H](C)NC(=O)[C@@H](N)Cc1c[nH]c2ccccc12)C(C)C)C(N)=O` [bombesin (8-14)], the IC50 [1] was 4 µM and the remaining activity at 10 µM [2, 9] was 5 ± 2%.

In the case of Insulin: insulin purchased from Sigma, the “specific binding of 125I-GRP to membranes” value ([1]; addition at 1.5 μM, 0.5 nM 125I-GRP, 37° C., 10 minutes, None 305 ± 9) is reported as 332 ± 6 fmole/mg protein and the “125I-GRP affinity labelling” value ([2]; addition at 1.5 μM, 0.5 nM 125I-GRP, 37° C., 10 minutes, None 100) is reported as 113 ± 3 % of maximum.
